# Source: patent US20190307843A1, “SINGLE DOSE METHODS FOR PREVENTING AND TREATING FUNGAL INFECTIONS” (Cidara Therapeutics, Inc., priority 2016, published 2019)
# Where two headings read alike, the source gives them in different places. Starred links: 1 amine or outer side, 2 acyl side, 3 side chain; linkers in the order of their positions; H or OH if unused. Positions of bridges follow the written chain, without caps; N, C: chain ends. Non-standard residues stand in square brackets, D forms with d. Residues, ends and D or L forms follow the SMILES beside them. *: point of attachment. Orn(4R-OH,5R-OCH2CH2NMe3+) = C[N+](C)(C)CCO[C@@H](N[*:3])[C@H](O)C[C@H](N[*:1])C(=O)[*:2]; pTerphenylCO(4''-OnC5H11) = CCCCCOc1ccc(-c2ccc(-c3ccc(C(=O)*)cc3)cc2)cc1; hTyr(3S-OH,4S-OH) = N[C@H](C(=O)O)[C@H](O)[C@@H](O)c1ccc(O)cc1; Pro(3S-OH,4S-Me) = C[C@H]1CN[C@H](C(=O)O)[C@H]1O; Hyp = O=C(O)[C@@H]1C[C@@H](O)CN1
# Legend:
# C. parapsilosis = assay: In vitro susceptibility testing (CLSI M27-A3), C. parapsilosis; format: cell-based, Candida parapsilosis; conditions: Lodderomyces parapsilosis, 24 h
# Description: (§1) Ten clinical Candida strains were used for the in vivo treatment studies, including four C. albicans, three C. glabrata, and three C. parapsilosis strains (Table 15). This group was selected to encompass phenotypic variability in susceptibility to triazoles and echinocandins and based on similar fitness in the animal model as defined by the amount of growth in control animals over 24 h. The organisms were maintained, grown, and quantified on Sabouraud's dextrose agar (SDA) plates.
# (§2) In vitro susceptibility testing. All isolates were tested in accordance with the standards in CLSI document M27-A3. The MICs were determined visually after 24 h of incubation as the lowest concentration of drug that causes a significant diminution (50%) of growth compared to controls. MICs were determined on three separate occasions in duplicate.
# Candida albicans (R357) = assay: Neutropenic mouse model of azole-resistant candidiasis, kidney CFU; format: in vivo; conditions: CD101 3 mg/kg single IP dose, 72 hours
# [1] = Previous toxicology studies by the IV route; format: in vivo, cynomolgus monkey
# Description: (§3) Previous toxicology studies by the IV route of administration conducted in cynomolgus monkeys have shown CD101 to be safe and well tolerated at up to at least 30 mg/kg, which generates very high systemic exposures upon initial infusion of CD101 into the bloodstream. Therefore, only local tolerability (and PK) of CD101 by SC administration required evaluation. […] Plasma concentrations were then quantified by liquid chromatography with tandem mass spectrometric detection (LC-MS/MS). Bioavailability from SC dosing was calculated by comparing the calculated area under the concentration-time profile (AUC) from SC against the AUC from IV administration of the same dose.
# [2] = test system: C. albicans SC-5314 biofilms; assay: Time lapse microscopy of biofilm formation; format: cell-based, Candida albicans; conditions: CD101 0.25 μg/ml; 0 h up to 16 h
# Source text: The effective CD101 concentration obtained from the above experiments was used to monitor its effect on biofilm formation in real time using TLM, which involves capturing real-time images of a single frame at specific time intervals, allowing temporal monitoring of the interactions occurring between the drug and Candida biofilms. Captured images were combined in a time sequence, resulting in an animation depicting the sequence of events that occurred with the passage of time. Briefly, the discs with C. albicans (adhered for 90 min as above) were placed in a 35-mm-diameter glass-bottom Petri dish (MatTek Corp., Ashland, Mass.). […] Phase contrast images for this interaction were captured immediately from 0 h and followed up to 16-17 h on a Leica DMI 6000 B inverted microscope connected to a Retiga EXi Aqua camera (Q-imaging Vancouver British Columbia). To determine the structural changes in the maturing biofilm, both acquisition and analysis of a series of horizontal (xy) optical sections of the biofilm was done using Metamorph Imaging software (Molecular Devices, Downington, Pa.). Disc incubated with media alone was used as control.
# [3] = Monkey SC local tolerability study; format: in vivo, cynomolgus monkey
# Description: as §3
# Therefore, a separate study was designed to evaluate the tolerability of a SC dose of CD101 as a highly concentrated solution (100 mg/mL; 30 mg/kg) in two cynomolgus monkeys. […] The drug reaches a maximum concentration within a few hours then remains nearly constant over the course of 10 days.
# [4] = Pharmacokinetic profile in mice following a 10-mg/kg subcutaneous dose; format: in vivo; conditions: mouse, plasma, sc
# [5] = Plasma and lung epithelial lining fluid (ELF) concentrations in ICR mice, 20 mg/kg IP; format: in vivo, mouse; conditions: for Kp / half-life: 20 mg/kg
# Description: At pre-dose, 1, 3, 6, 12, 24, 48, and 72 hours post-dose, 3 mice/timepoint were anesthetized/euthanized for blood collection (plasma) and bronchoalveolar lavage fluid (BALF) collection with 2×0.5 mL flushes of saline. Urea levels for plasma/BALF normalization for the volume of lung epithelial lining fluid (ELF) calculation were quantified using a commercially-available spectrophotometry-based assay. CD101 concentrations in plasma/BALF samples were measured by LC with electrospray ionization tandem mass spectrometric (LC-MS/MS) detection.
# Urea for plasma/BALF normalization for ELF volume were quantified using spectrophotometry. CD101 concentrations in plasma/BALF samples were measured by LC-MS/MS. Total plasma concentrations were corrected for protein binding (99.2%).
# Pneumocystis spp. = assay: Murine model of Pneumocystis pneumonia; conditions: in vivo
# Source text: The in vitro activity of CD101 was previously evaluated as part of the SENTRY international surveillance program using CLSI broth microdilution methodology (M38-A2, M27-A3; Pfaller, et al 2017). […] These susceptibility data were then compared graphically to CD101 plasma concentrations from studies in healthy adults, adjusted for plasma protein binding. Nonclinical efficacy in a murine model of Pneumocystis pneumonia were also considered to evaluate CD101 doses for clinical investigation of antifungal prophylaxis.
# [6] = Protein binding by ultracentrifugation, mouse plasma; format: in vitro ADME; conditions: read-out: percent of bound CD101, mean (protein binding) (converted)
# Description: Concentrations in plasma ranging from 7 to 60 μg/mL were tested and resulting samples were analyzed by LC-MS/MS.
# [7] = test system: Candida albicans ATCC SC5314; assay: Prophylaxis, neutropenic ICR mouse candidiasis model, kidney CFU; conditions: for clearance of kidney CFU: 24 hours post-challenge
# C. albicans = assay: In vitro susceptibility testing (CLSI M27-A3), C. albicans; format: cell-based; conditions: Candida albicans, 24 h
# Description: as §1, §2
# A. fumigatus ATCC 13073 = assay: Disseminated aspergillosis, treatment, neutropenic ICR mice (Example 17); format: in vivo, Aspergillus fumigatus
# Source text: Survival monitored for ≥10 days.
# [8] = test system: Aspergillus fumigatus (ATCC 13073); assay: Neutropenic mouse aspergillosis model, survival; format: in vivo; conditions: CD101 2 mg/kg IV or IP one dose; 10 days
smiles,measurement,setting,value
"CCCCCOc1ccc(-c2ccc(-c3ccc(C(=O)N[C@H]4C[C@@H](O)[C@@H](OCC[N+](C)(C)C)NC(=O)[C@@H]5[C@@H](O)[C@@H](C)CN5C(=O)[C@H]([C@@H](C)O)NC(=O)[C@H]([C@H](O)[C@@H](O)c5ccc(O)cc5)NC(=O)[C@@H]5C[C@@H](O)CN5C(=O)[C@H]([C@@H](C)O)NC4=O)cc3)cc2)cc1 [CD101] ({pTerphenylCO(4''-OnC5H11)}-[Orn(4R-OH,5R-OCH2CH2NMe3+)]T[Hyp][hTyr(3S-OH,4S-OH)]T[Pro(3S-OH,4S-Me)]; lactam 1-C)",MIC,C. parapsilosis; C. parapsilosis 20423.072,0.5 µg/mL
same,MIC,C. parapsilosis; C. parapsilosis 20477.048,1 µg/mL
same,MIC,C. parapsilosis; C. parapsilosis 20519.069,1 µg/mL
same,reduction in C. albicans CFU compared with vehicle,Candida albicans (R357),> 3 log
same,dose safe and well tolerated,[1],at least 30 mg/kg
same,biofilm formation in real time,[2],"only adhered cells with stunted growth, which failed to grow into mature biofilms"
same,irritation or local (injection site) adverse toxicity,[3]; single 30 mg/kg SC (100 mg/mL),no sign of irritation or local (injection site) adverse toxicity
same,bodyweight or food consumption,"[3]; single 30 mg/kg SC, 10 days after administration",no effect on bodyweight or food consumption
same,half-life,[4],~25 h
same,bioavailability,[4]; read-out: absolute bioavailability,~50%
same,ELF half-life,[5]; 20 mg/kg IP,32 h
same,mean maximum ELF concentration,[5]; 20 mg/kg IP,15.1 µg/mL
same,mean maximum plasma concentration,[5]; 20 mg/kg IP,30.1 µg/mL
same,plasma half-life,[5]; 20 mg/kg IP,21.1 h
same,time of maximum plasma concentration,"[5]; 20 mg/kg IP, first collection timepoint",1 h
same,Kp,"[5]; ICR, mouse, lung epithelial lining fluid (ELF), intraperitoneal, free-drug, read-out: ELF/Plasma AUClast ratio",100
same,Kp,"[5]; ICR, mouse, lung epithelial lining fluid (ELF), intraperitoneal, total-drug, read-out: ELF/Plasma AUClast ratio",0.8
same,concentration at 72 h,"[5]; ICR, mouse, lung epithelial lining fluid (ELF), intraperitoneal, 20 mg/kg IP, at 72 h",4000 ng/mL
same,Kp,"[5]; ICR, mouse, lung epithelial lining fluid (ELF), ip, 20 mg/kg IP, read-out: AUC exposure ratios of ELF/plasma",0.8 to 0.95
same,half-life,"[5]; ICR, mouse, lung epithelial lining fluid (ELF), ip, 20 mg/kg IP, read-out: ELF half-life (converted)",31.9 h
same,AUC,"[5]; ICR, mouse, lung epithelial lining fluid (ELF), 20 mg/kg IP, read-out: mean ELF AUC",802 µg·h/mL
same,AUC(0-t),"[5]; ICR, mouse, lung epithelial lining fluid (ELF), 20 mg/kg IP, read-out: mean ELF AUC0-72",606 µg·h/mL
same,half-life,"[5]; ICR, mouse, plasma, ip, 20 mg/kg IP, read-out: plasma half-life (converted)",21 h
same,AUC,"[5]; ICR, mouse, plasma, 20 mg/kg IP, read-out: mean plasma AUC",848 µg·h/mL
same,AUC(0-t),"[5]; ICR, mouse, plasma, 20 mg/kg IP, read-out: mean plasma AUC0-72",762 µg·h/mL
same,human equivalent doses at which Pneumocystis pneumonia was prevented in mice,Pneumocystis spp.,< 50 mg
same,fraction unbound at 2.5 hr,[6],0.008
same,clearance of kidney CFU,[7]; CD101 SC 10 mg/kg at Day −3 and Day −1,Complete clearance was observed in all animals
same,clearance of kidney CFU,[7]; CD101 SC 20 mg/kg on Day −3,all but one animal
same,kidney CFU burden,"[7]; CD101 SC 20 mg/kg, Day −5, −3 or −1",reduced CFU burden regardless of prophylactic treatment day
same,kidney CFU,[7]; CD101 SC 5 or 10 mg/kg at Day −3 and Day −1,significant decrease in CFU
same,MIC,C. albicans; C. albicans 98-17,0.06 µg/mL
same,MIC,C. albicans; C. albicans 98-210,0.03 µg/mL
same,MIC,C. albicans; C. albicans 580,0.06 µg/mL
same,MIC,"C. albicans; C. albicans K-1, 50% growth diminution",0.06 µg/mL
same,survival compared to vehicle,"A. fumigatus ATCC 13073; CD101 IV/IP 0.2, 1, or 5 mg/kg BID×5d",significant increase in survival compared to vehicle
same,survival,A. fumigatus ATCC 13073; single 2 mg/kg vs 0.2 mg/kg BID×5d,Survival was comparable
same,survival vs vehicle,[8],significantly longer survival than vehicle
